Results on 26 compounds are retold here after patent US20250313535A1, “ALPHA 4 BETA 7 INTEGRIN MODULATORS AND USES THEREOF” (DICE MOLECULES SV, INC., priority 2022, published 2025).

Like-named read-outs stand apart in the source and are kept apart here. Bounds are passed on as bounds.

One test addresses α4β7 integrin (Homo sapiens (Human), UniProt P13612+P26010). In words: Integrin Adhesion Assay: Protocol 4 (MAdCAM-coated plate, RPMI-8866 cells with stable LOF mutation of the ITGB1 gene). The class given is cell-based. Here is the method: (§1) Integrin Adhesion Assay Using Genetically Modified Cells Generating Stable Cell Lines with ITGB1 or ITGB7 Knockout (Protocol 4 and Protocol 5)
(§2) To obtain subclones of the RPMI-8866 cell line (Sigma-Aldrich, St. Louis, MO) that were individually deficient in either integrin β1 or integrin β 7, CRISPR/Cas9 technology was employed (PMID: 30108345). Specifically, a Neon™ Transfection System System 10 μL Kit and the Neon™ Transfection device (both from ThermoFisher Scientific) were used.
(§3) The protocol was performed following the manufacturer instructions, described in https://www.thermofisher.com/document-connect/document-connect.html?url=https % 3A%2F%2F assets.thermofisher.com%2FTFS-Assets%2FLSG%2Fmanuals%2FMAN0017066_TrueCut Cas9_Protein_v2_UG.pdf, which is incorporated by reference herein in its entirety.
(§4) RPMI-8866 cells were transferred to a flask the day before transfection, at a confluence of 5×10^5 cells/mL. The cells were washed with PBS and resuspended in buffer R (Neon™ Transfection System, Invitrogen) to 2×10^5 cells/10 uL for each reaction. The TrueCut™ HiFi Cas9 Protein (1250 ng per reaction) was mixed with TrueGuide™ sgRNA (7.5 pmoles each/pool of 3 sequences, table 1) (ThermoFisher Scientific). This mix was combined with the RPMI-8866 cells and electroporated on the Neon system at 1700V/20 ms/1 pulse. Transfected cells were allowed to recover in 500 μL pre-warmed cRMPI media (RPMI-1640 media with 10% FBS, 100 U/ml Penicillin-Streptomycin) at 37° C., 5% CO2 for 24 hours. At that time, an extra 500 μL of pre-warmed cRMPI media was added, and cells were incubated for another 24 hours.
(§5) For flow cytometry analysis, 100 μL of the transfected cells were collected and stained with anti-itga4 (Clone: 9F10, PE, BD Pharmingen™), anti-itgb 1 (Clone: (TS2/16), Super Bright 436, eBioscience), anti-itgb7 (Clone: FIB504, Brilliant Violet 650, BD Pharmingen™) and viability dye (LIVE/DEAD™ Fixable Green Dead Cell Stain, Invitrogen™). An Attune NxT Flow Cytometer was used to analyze the CRISPR-transfected cells. The flow cytometry results were analyzed using FlowJo™ v10.8.1 Software (BD Life Sciences). Fluorescence minus one (FMO) controls were used to select appropriate gates for data analysis.
(§6) To generate an individual clones of cells deficient in either ITGB7 or ITGB1 by limiting dilution assay, the transfected cells were resuspended at 5 cells/mL and seeded in 384 well plates. Outgrowth of clones was monitored using a microscope, and 24 clones were transferred for expansion. Expression of either integrin was verified by flow cytometry in each of the clones. One clone of each integrin b7 or the integrin b1 knockout was chosen, expanded and aliquots were frozen in vapor phase liquid nitrogen.
Integrin Adhesion Assay: Protocol 4
(§7) MAdCAM (R&D Systems, 0.1 ug) was diluted in 50 μL PBS, added to each well of an opaque ELISA plate (Thermo), and incubated overnight at 4° C. Coated plates were washed once with PBS and then blocked with 200 μL of assay buffer (10 mM HEPES, 150 mM NaCl, 1 mM MnCl2, 0.1 mM CaCl2), 1% BSA) for 1 hour at 37° C. and 5% CO2. After incubation, buffer was aspirated from the plates and 50 μL of fresh assay buffer was added. Compounds were added using a compounds dispenser (Tecan), and DMSO concentration was normalized to 1% across each plate. 50 μL of RPMI-8866 cells with a stable loss of function (LOF) mutation of the ITGB1 gene (2×10^6 per mL) were added to each well and the plates were incubated for 1 hour at 37° C. at a CO2 concentration of 5%. After incubation, plates were allowed to cool to RT for 10 minutes before being washed four times in assay buffer by an automated plate washer (BioTek). After washing, 100 μL of a 1:1 mixture of assay buffer and CellTiter GLO 2.0 reagent (Promega) were added to each well. Plates were mixed for 2 minutes at 1000 rpm and then allowed to incubate an additional 10 minutes before reading out luminescence on a Tecan Spark plate reader. […]

The next test concerns the target α4β1 integrin (Homo sapiens (Human), UniProt P05556+P13612). In words: Integrin Adhesion Assay: Protocol 5 (VCAM-coated plate, RPMI-8866 cells with stable LOF mutation of the ITGB7 gene). It counts as cell-based. Here is the method: as §1, §2, §3, §4, §5, §6
Integrin Adhesion Assay: Protocol 5
as §7, with “VCAM” for “MAdCAM”, “by” for “using a”, “(Tecan)” for “(Tecan),”, “LOF” for “loss of function (LOF)”, “ITGB7” for “ITGB1”, “and 5% CO2.” for “at a CO2 concentration of 5%.”

Setting [1] is: RPMI-8866 cells with stable LOF mutation of the ITGB1 gene, read-out: Mean IC50 α4β7 KO^a.
[2] abbreviates: RPMI-8866 cells with stable LOF mutation of the ITGB7 gene, read-out: Mean IC50 α4β1 KO^b.
The mark [3] stands for this setting: Protocol 4, RPMI-8866 cells with LOF mutation of ITGB1, MAdCAM, read-out: Mean IC50 α4β7 KO.
The mark [4] stands for this setting: Protocol 5, RPMI-8866 cells with LOF mutation of ITGB7, VCAM, read-out: Mean IC50 α4β1 KO.

A word on the IC50: it is the concentration needed to halve the response being measured.

α4β7 integrin, sequence (P13612 34-1032): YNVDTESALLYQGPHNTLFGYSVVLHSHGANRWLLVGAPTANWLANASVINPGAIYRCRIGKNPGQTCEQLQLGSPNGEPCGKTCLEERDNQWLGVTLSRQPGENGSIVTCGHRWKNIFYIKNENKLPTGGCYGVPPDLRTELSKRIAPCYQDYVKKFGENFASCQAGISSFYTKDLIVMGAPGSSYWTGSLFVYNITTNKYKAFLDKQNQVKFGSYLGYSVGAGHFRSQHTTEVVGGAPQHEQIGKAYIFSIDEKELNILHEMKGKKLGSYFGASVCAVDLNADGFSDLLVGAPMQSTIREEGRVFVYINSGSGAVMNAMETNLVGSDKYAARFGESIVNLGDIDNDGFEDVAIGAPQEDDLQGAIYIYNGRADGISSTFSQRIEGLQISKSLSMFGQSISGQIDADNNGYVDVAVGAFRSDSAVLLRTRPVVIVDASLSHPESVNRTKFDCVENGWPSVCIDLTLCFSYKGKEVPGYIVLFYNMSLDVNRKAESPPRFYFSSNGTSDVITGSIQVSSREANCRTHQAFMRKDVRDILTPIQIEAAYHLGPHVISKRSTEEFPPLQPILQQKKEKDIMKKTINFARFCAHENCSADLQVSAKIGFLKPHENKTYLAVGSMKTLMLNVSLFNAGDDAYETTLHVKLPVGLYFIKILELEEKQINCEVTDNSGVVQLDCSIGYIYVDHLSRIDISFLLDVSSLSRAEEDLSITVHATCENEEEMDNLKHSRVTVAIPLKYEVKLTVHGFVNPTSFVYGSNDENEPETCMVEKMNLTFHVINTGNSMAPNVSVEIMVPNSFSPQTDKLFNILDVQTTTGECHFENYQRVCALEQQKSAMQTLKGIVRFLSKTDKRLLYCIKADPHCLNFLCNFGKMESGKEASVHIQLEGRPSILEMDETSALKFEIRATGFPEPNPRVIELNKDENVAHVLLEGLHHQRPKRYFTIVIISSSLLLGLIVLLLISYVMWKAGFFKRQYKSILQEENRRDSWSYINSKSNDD
α4β7 integrin, sequence (P26010 20-798): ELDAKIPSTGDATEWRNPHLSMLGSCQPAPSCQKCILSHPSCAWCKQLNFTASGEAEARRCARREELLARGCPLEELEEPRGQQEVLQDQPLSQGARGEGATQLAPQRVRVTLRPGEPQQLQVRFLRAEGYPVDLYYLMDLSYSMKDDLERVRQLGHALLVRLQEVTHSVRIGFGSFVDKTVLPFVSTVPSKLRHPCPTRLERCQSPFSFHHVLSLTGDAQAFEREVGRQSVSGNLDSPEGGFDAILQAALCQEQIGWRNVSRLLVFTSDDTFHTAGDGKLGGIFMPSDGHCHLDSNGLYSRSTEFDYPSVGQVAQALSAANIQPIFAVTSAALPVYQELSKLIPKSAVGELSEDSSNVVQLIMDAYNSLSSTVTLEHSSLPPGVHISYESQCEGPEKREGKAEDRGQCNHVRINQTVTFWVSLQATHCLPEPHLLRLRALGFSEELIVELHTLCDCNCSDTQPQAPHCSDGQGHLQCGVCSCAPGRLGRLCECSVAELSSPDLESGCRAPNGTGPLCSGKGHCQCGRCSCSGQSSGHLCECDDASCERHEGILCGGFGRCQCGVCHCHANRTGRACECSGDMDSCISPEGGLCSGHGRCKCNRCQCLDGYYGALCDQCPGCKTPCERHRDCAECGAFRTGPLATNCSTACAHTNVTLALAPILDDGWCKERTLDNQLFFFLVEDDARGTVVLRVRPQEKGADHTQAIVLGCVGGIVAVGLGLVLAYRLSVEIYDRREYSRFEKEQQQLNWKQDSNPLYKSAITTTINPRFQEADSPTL
α4β1 integrin, sequence (P13612 34-1032): as the sequence (P13612 34-1032) above
α4β1 integrin, sequence (P05556 21-798): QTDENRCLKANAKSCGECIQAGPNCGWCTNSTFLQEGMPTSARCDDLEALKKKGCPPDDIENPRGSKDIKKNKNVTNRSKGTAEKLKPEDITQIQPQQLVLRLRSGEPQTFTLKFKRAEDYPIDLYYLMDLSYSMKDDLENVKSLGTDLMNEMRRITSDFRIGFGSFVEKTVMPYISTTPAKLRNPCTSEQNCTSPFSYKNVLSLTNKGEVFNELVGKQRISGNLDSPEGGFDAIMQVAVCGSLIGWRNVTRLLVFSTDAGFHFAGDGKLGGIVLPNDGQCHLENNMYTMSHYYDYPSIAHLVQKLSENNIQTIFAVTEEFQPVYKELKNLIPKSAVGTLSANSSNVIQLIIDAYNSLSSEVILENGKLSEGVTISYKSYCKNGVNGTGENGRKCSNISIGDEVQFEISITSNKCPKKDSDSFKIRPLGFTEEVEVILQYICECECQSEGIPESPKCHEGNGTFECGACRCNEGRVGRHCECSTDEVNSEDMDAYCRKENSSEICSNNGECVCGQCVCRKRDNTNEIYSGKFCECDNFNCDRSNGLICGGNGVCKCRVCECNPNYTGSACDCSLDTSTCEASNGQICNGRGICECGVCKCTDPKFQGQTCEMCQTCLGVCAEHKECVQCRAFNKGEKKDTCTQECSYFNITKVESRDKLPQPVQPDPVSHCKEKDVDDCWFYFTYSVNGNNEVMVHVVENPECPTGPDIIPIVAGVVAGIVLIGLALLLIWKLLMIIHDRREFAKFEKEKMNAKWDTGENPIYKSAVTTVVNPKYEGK

In the case of `COc1ccc(CN2CCC[C@H](F)C2)c(OC)c1-c1cccc2c(C[C@H](NC(=O)c3c(C)cccc3F)C(=O)O)cccc12` [Compound 671], the figures for the concentration for half-maximal inhibition (IC50) on α4β7 integrin (setting [1]) and on α4β1 integrin (setting [2]) were less than 10 nM and 100 to 1000 nM, respectively.
In the case of `COc1cc(C(F)(F)F)c(CN2CCCCC2)cc1-c1cccc2c(C[C@H](NC(=O)C3(C(F)(F)F)CCN(CC(F)(F)F)CC3)C(=O)O)cccc12` [Compound 832], the IC50 at α4β7 integrin (setting [3]) was 10 to 100 nM; on α4β1 integrin (setting [4]), more than 1000 nM.
`COc1cccc(CN2CCC(F)CC2)c1-c1cccc2c(C[C@H](NC(=O)C3(C(F)(F)F)CCN(CC(F)(F)F)CC3)C(=O)O)cccc12` [Compound 827]: the half-inhibitory concentration (IC50) at α4β7 integrin (setting [3]) was 10 to 100 nM; on α4β1 integrin (setting [4]), more than 1000 nM.
For the compound `CC(=O)CN1CCC(C(=O)N[C@@H](Cc2cccc3c(-c4c(C(F)(F)F)c5ccccc5n(C)c4=O)cccc23)C(=O)O)(C(F)(F)F)CC1` [Compound 519], the half-maximal inhibitory concentration (IC50) at α4β7 integrin (setting [1]) is less than 10 nM; at α4β1 integrin (setting [2]), 100 to 1000 nM.
In the case of `COc1c(CN2CCCCC2)ccc(C(F)(F)F)c1-c1cccc2c(C[C@H](NC(=O)C3(C(F)(F)F)CCN(CC(F)(F)F)CC3)C(=O)O)cccc12` [Compound 662], the IC50 was 10 to 100 nM on α4β7 integrin (setting [1]) and more than 1000 nM on α4β1 integrin (setting [2]).
The like results for `O=C(O)[C@H](Cc1cccc2c(-c3nccc4c(CN5CC(F)C5)cccc34)cccc12)NC(=O)C1(C(F)(F)F)CCN(CC(F)(F)F)CC1` [Compound 556] were, in that order, less than 10 nM and more than 1000 nM.
As to `COc1cc(C(F)(F)F)cc(CN2CCCCC2)c1-c1cccc2c(C[C@H](NC(=O)c3c(C)cccc3F)C(=O)O)cccc12` [Compound 1009], the IC50 on α4β7 integrin (setting [3]) was less than 10 nM; on α4β1 integrin (setting [4]), more than 1000 nM.
The corresponding values for `CCOCc1cc(OC)c(-c2cccc3c(C[C@H](NC(=O)c4c(C)cccc4F)C(=O)O)cccc23)cc1CN1CCCCC1` [Compound 1008] are less than 10 nM and 100 to 1000 nM.
Consider `CC[C@@H]1CCCN1Cc1cnc(-c2cccc3c(C[C@H](NC(=O)C4(C(F)(F)F)CCN(CC(F)F)CC4)C(=O)O)cccc23)c2ccccc12` [Compound 936], for which the half-maximal inhibitory concentration (IC50) is less than 10 nM on α4β7 integrin (setting [3]) and 100 to 1000 nM at α4β1 integrin (setting [4]).
The like results for `COc1cccc(CN2CCC(C)(C)CC2)c1-c1cccc2c(C[C@H](NC(=O)c3c(C)cccc3F)C(=O)O)cccc12` [Compound 1017] were, in that order, less than 10 nM and 100 to 1000 nM.
With `COc1ccc(CN(C)C)c(OC)c1-c1cccc2c(C[C@H](NC(=O)C3(C(F)(F)F)CCN(CC(F)(F)F)CC3)C(=O)O)cccc12` [Compound 455], the concentration for half-maximal inhibition (IC50) on α4β7 integrin (setting [1]) is less than 10 nM; on α4β1 integrin (setting [2]), 100 to 1000 nM.
With `CN(C)CCc1ccc2c(c1)c(C(F)(F)F)c(-c1cccc3c(C[C@H](NC(=O)C4(C(F)(F)F)CCN(CC(F)(F)F)CC4)C(=O)O)cccc13)c(=O)n2C` [Compound 707], the half-inhibitory concentration (IC50) was less than 10 nM on α4β7 integrin (setting [3]) and 10 to 100 nM on α4β1 integrin (setting [4]).
Take `O=C(O)[C@H](Cc1cccc2c(-c3ncc(CN4CCC5(CC4)CC5)c4ccccc34)cccc12)NC(=O)C1(C(F)(F)F)CCN(CC(F)(F)F)CC1` [Compound 883]: the IC50 was less than 10 nM at α4β7 integrin (setting [3]) and more than 1000 nM on α4β1 integrin (setting [4]).
As for `CC1(C(=O)N[C@@H](Cc2cccc3c(-c4nccc5ccc(CCCN6CCCCC6)cc45)cccc23)C(=O)O)CC2CCC(C1)N2CC(F)(F)F` (stereo partly shown) [Compound 548], the values for the half-maximal inhibitory concentration (IC50) at α4β7 integrin (setting [1]) and on α4β1 integrin (setting [2]) were less than 10 nM and more than 1000 nM, respectively.
The like results for `COc1ccc(CN2CCC(F)(F)CC2)c(OC)c1-c1cccc2c(C[C@H](NC(=O)c3c(F)ccnc3C)C(=O)O)cccc12` [Compound 615] were, in that order, 10 to 100 nM and more than 1000 nM.
The corresponding values for `O=C(O)[C@H](Cc1cccc2c(-c3cc4ccccc4cn3)cccc12)NC(=O)C1(C(F)(F)F)CCN(C2COC2)CC1` [Compound 525] are 10 to 100 nM and more than 1000 nM.
On to `Cn1c(=O)c(-c2cccc3c(C[C@H](NC(=O)C4(C)CCCN(C5COC5)CC4)C(=O)O)cccc23)c(C(F)(F)F)c2ccccc21` (stereo partly shown) [Compound 1050], for which the 50% inhibitory concentration (IC50) on α4β7 integrin (setting [3]) is 10 to 100 nM; at α4β1 integrin (setting [4]), more than 1000 nM.
On to `Cn1c(C(F)(F)F)cc(C(F)(F)F)c(-c2cccc3c(C[C@H](NC(=O)C4(C(F)(F)F)CCN(C5COC5)CC4)C(=O)O)cccc23)c1=O` [Compound 499], for which the half-inhibitory concentration (IC50) was less than 10 nM at α4β7 integrin (setting [1]) and 100 to 1000 nM at α4β1 integrin (setting [2]).
The corresponding values for `Cn1c(=O)c(-c2cccc3c(C[C@H](NC(=O)C4(C(F)(F)F)CCN(CC#N)CC4)C(=O)O)cccc23)c(C(F)(F)F)c2ccccc21` [Compound 538] are 10 to 100 nM and more than 1000 nM.
`O=C(O)[C@H](Cc1cccc2c(-c3ncc(CN4CCCC(F)(F)CC4)c4ccccc34)cccc12)NC(=O)C1(C(F)(F)F)CCN(CC(F)(F)F)CC1` [Compound 869]: the IC50 on α4β7 integrin (setting [3]) was 10 to 100 nM; on α4β1 integrin (setting [4]) it was more than 1000 nM.
The like results for `O=C(O)[C@H](Cc1cccc2c(-c3cc(C(F)(F)F)c(CN4CCCCC4)cn3)cccc12)NC(=O)C1(C(F)(F)F)CCN(CC(F)(F)F)CC1` [Compound 891] were, in that order, 100 to 1000 nM and more than 1000 nM.
As for `CC1(C(=O)N[C@@H](Cc2cccc3c(-c4ncc(CN5CCCCC5)c5ccccc45)cccc23)C(=O)O)CC2CCC(C1)N2CC(F)(F)F` (stereo partly shown) [Compound 679], the concentration for half-maximal inhibition (IC50) was 10 to 100 nM at α4β7 integrin (setting [1]) and more than 1000 nM at α4β1 integrin (setting [2]).
As to `COC(=O)[C@H](Cc1cccc2c(-c3ncc(CN(C)C)c4ccccc34)cccc12)NC(=O)C1(C(F)(F)F)CCN(CC(F)F)CC1` [Compound 778], the half-maximal inhibitory concentration (IC50) at α4β7 integrin (setting [3]) was less than 10 nM; on α4β1 integrin (setting [4]) it was 100 to 1000 nM.
The like results for `CC1(C)CCCN(Cc2cnc(-c3cccc4c(C[C@H](NC(=O)C5(C(F)(F)F)CCN(CC(F)(F)F)CC5)C(=O)O)cccc34)c3ccccc23)C1` [Compound 873] were, in that order, 10 to 100 nM and more than 1000 nM.
The corresponding values for `COc1ccc(CN2CCC(F)(F)CC2)c(C(F)(F)F)c1-c1cccc2c(C[C@H](NC(=O)C3(C(F)(F)F)CCN(CC(F)(F)F)CC3)C(=O)O)cccc12` [Compound 822] are 100 to 1000 nM and more than 1000 nM.
As for `COc1cc(CN2CCC(C(F)(F)F)CC2)cnc1-c1cccc2c(C[C@H](NC(=O)C3(C(F)(F)F)CCN(CC(F)F)CC3)C(=O)O)cccc12` [Compound 925], the IC50 on α4β7 integrin (setting [3]) is less than 10 nM; on α4β1 integrin (setting [4]), more than 1000 nM.
